Experiments:
Leptosphaeria nodorum = test: In vivo preventive test on Leptosphaeria nodorum (wheat); conditions: evaluated 8 days after inoculation
Excerpt: After the spray coating has been dried, the plants are sprayed with a spore suspension of Leptosphaeria nodorum.

[1] = logP by HPLC on reversed-phase column (EEC Directive 79/831 Annex V.A8); format: physicochemical; conditions: HPLC on reversed-phase column (C 18), 40° C., 0.1% aqueous formic acid and acetonitrile, linear gradient 10% to 90% acetonitrile
Method: In table 1, the logP values were determined in accordance with EEC Directive 79/831 Annex V.A8 by HPLC (High Performance Liquid Chromatography) on a reversed-phase column (C 18), using the method described below: Temperature: 40° C.; Mobile phases: 0.1% aqueous formic acid and acetonitrile; linear gradient from 10% acetonitrile to 90% acetonitrile. Calibration was carried out using unbranched alkan-2-ones (comprising 3 to 16 carbon atoms) with known logP values (determination of the logP values by the retention times using linear interpolation between two successive alkanones). lambda-max-values were determined using UV-spectra from 200 nm to 400 nm and the peak values of the chromatographic signals.

Sphaerotheca fuliginea = test: In vivo preventive test on Sphaerotheca fuliginea (cucumber); conditions: 500 ppm of active ingredient, evaluated 7 days after inoculation
Alternaria solani = test: In vivo preventive test on Alternaria solani (tomato); conditions: evaluated 7 days after inoculation
Method: The plants remain for one day in an incubation cabinet at approximately 22° C. and a relative atmospheric humidity of 100%. Then the plants are placed in an incubation cabinet at approximately 20° C. and a relative atmospheric humidity of 96%.

Pyrenophora teres = test: In vivo preventive test on Pyrenophora teres (barley); conditions: 500 ppm of active ingredient, evaluated 7-9 days after inoculation
Method: The plants remain for 48 hours in an incubation cabinet at 22° C. and a relative atmospheric humidity of 100%.

Septoria tritici = test: In vivo preventive test on Septoria tritici (wheat); conditions: 500 ppm of active ingredient, evaluated 21 days after inoculation
Excerpt: After the spray coating has been dried, the plants are sprayed with a spore suspension of Septoria tritici.

[2] = test system: Blumeria graminis f.sp. hordei; test: In vivo preventive test on Blumeria graminis (barley); conditions: 500 ppm of active ingredient, evaluated 7 days after inoculation
Excerpt: After the spray coating has been dried, the plants are dusted with spores of Blumeria graminis f.sp. hordei.

[3] = test system: Fusarium nivale (var. majus); test: In vivo preventive test on Fusarium nivale (wheat); conditions: 500 ppm of active ingredient, evaluated 5 days after inoculation
Excerpt: After the spray coating has been dried, the plants are slightly injured by using a sandblast and afterwards they are sprayed with a conidia suspension of Fusarium nivale (var. majus).

Puccinia triticina = test: In vivo preventive test on Puccinia triticina (wheat); conditions: 500 ppm of active ingredient, evaluated 8 days after inoculation
Method: In Vivo Preventive Test on Puccinia Triticina (Wheat)
Solvent: 49 parts by weight of N,N-dimethylacetamide
Emulsifier: 1 part by weight of alkylaryl polyglycol ether
After the spray coating has been dried, the plants are sprayed with a spore suspension of Puccinia triticina.
The test is evaluated 8 days after the inoculation.

[4] = 100 ppm of active ingredient, listed as 1.110
[5] = 100 ppm of active ingredient, listed as 1.110 from WO-2009/153191

Row | Compound | logP [1] | Efficacy (Sphaerotheca fuliginea) [%] | Efficacy (Alternaria solani; 500 ppm of active ingredient) [%] | Efficacy (Pyrenophora teres) [%] | other results
1 | Cn1cc(C(=O)N2CCC[C@H]2COc2c(Cl)cc(Cl)cc2Cl)c(C(F)F)n1 [Example 1.006 from WO-2009/153191, [3-(difluoromethyl)-1-methyl-1H-pyrazol-4-yl]{(S)-2-[(2,4,6-trichlorophenoxy)methyl]pyrrolidin-1-yl}methanone, reference compound] | – | – | – | – | Efficacy (Leptosphaeria nodorum; 250 ppm of active ingredient, listed as 1.006): less than 50%; Efficacy (Leptosphaeria nodorum; 250 ppm of active ingredient, listed as 1.006 from WO-2009/153191): 43%; Efficacy (Leptosphaeria nodorum; 500 ppm of active ingredient, listed as 1.006): at least 70%; Efficacy (Leptosphaeria nodorum; 500 ppm of active ingredient, listed as 1.006 from WO-2009/153191): 71%
2 | Cn1nc(C(F)F)c(C(=O)N2CCCC2c2ccccc2Br)c1F (centres unmarked) [Example 32] | 2.98 | 95 | 95 | 100 | –
3 | Cn1cc(C(=O)N2CCCC2Cc2c(Cl)cccc2Cl)c(C(F)F)n1 (centres unmarked) [Example 1.110 from WO-2009/153191, [2-(2,6-dichlorobenzyl)pyrrolidin-1-yl][3-(difluoromethyl)-1-methyl-1H-pyrazol-4-yl]methanone, reference compound] | – | – | 95 | – | Efficacy (Alternaria solani; [4]): less than 30%; Efficacy (Alternaria solani; [5]): 30%; Efficacy (Leptosphaeria nodorum; [4]): no protection; Efficacy (Leptosphaeria nodorum; [5]): 0%; Efficacy (Leptosphaeria nodorum; 500 ppm of active ingredient): 44%
4 | Cn1nc(C(F)F)c(C(=O)N2CCCC2c2ccc(C(C)(C)C)cc2)c1F (centres unmarked) [Example 13] | 3.74 | 93 | 100 | 100 | –
5 | Cn1nc(C(F)F)c(C(=S)N2CCCC2c2cccc(C(F)(F)F)c2)c1F (centres unmarked) [Example 18] | 3.59 | 100 | 90 | 100 | –
6 | Cn1nc(C(F)F)c(C(=O)N2CCCC2c2cc(F)cc(F)c2)c1F (centres unmarked) [Example 10] | 2.70 | 85 | 95 | 100 | –
7 | Cn1nc(C(F)F)c(C(=O)N2CCCC2c2cccc(C(F)(F)F)c2)c1Cl (centres unmarked) [Example 16] | 3.21 | 86 | 100 | 100 | –
8 | Cn1nc(C(F)F)c(C(=O)N2CCCC2c2cc(Cl)cc(Cl)c2)c1F (centres unmarked) [Example 28] | 3.35 | 100 | 95 | 100 | –
9 | Cn1nc(C(F)F)c(C(=O)N2CCCC2c2ccc(C(F)(F)F)cc2)c1F (centres unmarked) [Example 21] | 3.13 | 81 | 90 | 95 | –

Further lines, with some results ahead:

Row | logP [1] | Compound | Efficacy (Sphaerotheca fuliginea) [%] | Efficacy (Alternaria solani; 500 ppm of active ingredient) [%] | Efficacy (Pyrenophora teres) [%] | other results
10 | 2.92 | Cn1nc(C(F)F)c(C(=O)N2CCCC2c2cccc(Br)c2)c1F (centres unmarked) [Example 34] | 95 | 95 | 100 | –
11 | 4.06 | Cn1nc(C(F)F)c(C(=S)N2CCCC2Cc2c(Cl)cccc2Cl)c1F (racemic) [Example 77] | 95 | 100 | 100 | –
12 | 3.64 | Cn1nc(C(F)F)c(C(=O)N2CCCC2Cc2cccc(Cl)c2Cl)c1F (racemic) [Example 69] | 88 | 100 | 100 | –
13 | 3.31 | Cn1nc(C(F)F)c(C(=O)N2CCCC2Cc2c(Cl)cccc2Cl)c1F (racemic) [Example 76] | 95 | – | 100 | Efficacy (Septoria tritici): 83%; Efficacy [2]: 100%; Efficacy [3]: 100%
14 | 2.90 | Cn1nc(C(F)F)c(C(=O)N2CCCC2Cc2ccc(F)cc2)c1F (centres unmarked) [Example 59] | 93 | – | 100 | Efficacy (Septoria tritici): 90%; Efficacy [2]: 100%; Efficacy [3]: 100%; Efficacy (Leptosphaeria nodorum; 500 ppm of active ingredient): 93%; Efficacy (Puccinia triticina): 88%
15 | 3.63 | Cn1nc(C(F)F)c(C(=O)N2CCCC2c2cc(C(F)(F)F)cc(C(F)(F)F)c2)c1F (centres unmarked) [Example 39] | 100 | 95 | 100 | –

From patent publication US8614242B2, “1-(heterocyclic carbonyl)-2-substituted pyrrolidines” (Bayer Intellectual Property GmbH, priority 2010, dated 2013)
